Measured values published in patent US5912247A, “Quinazoline compound and anti-tumor agent containing said compound as an active ingredient” (Kanebo, Ltd., priority 1995, dated 1999).
Where a name gives a salt, the structure may show the parent alone.

Experiments:
[1] = system: St-4 solid tumor (human gastric cancer transplantable to nude mouse); test: Anti-tumor activity against human gastric cancer St-4 (solid tumor) transplanted to nude mouse; type: in vivo, human (in male BALB/cA JCI-nu nude mice)
Text: Anti-tumor activity against human gastric cancer St-4 (solid tumor) transplanted to nude mouse: a) Materials: Test Animal: Male BALB/cA JCI-nu nude mice (six week old, six mice per group) Tumor: St-4 solid tumor (human gastric cancer transplantable to nude mouse) b) Test Method: St-4 solid tumor was cut to about 3 mm cubic, and the fragments were subcutaneously transplanted into the back at one side of the nude mice with a trockar. Ten days after the transplantation, the longitudinal size (L) and the size of the width direction (W) of the tumor were measured. The tumor weight was calculated by the formula: L×W×W/2, and when the weight of the tumor reached 100 mg to 300 mg, the mice were randomized. To the mice in test groups, the test compound was orally administered once a day for 40 days. The test compounds of this invention were administered in an amount of 30 mg/kg or 40 mg/kg in the form of a solution in distilled water, and No. 5666 was administered in an amount of 30 mg/kg or 100 mg/kg in the form of a suspension in 5% arabic gum solution. After the administration of the test compounds, the longitudinal size and the size in the width direction of the tumor were measured, and then the weight of tumor was calculated. The ratio of the tumor weight after treated with test compounds to the tumor weight before administration of test compounds (i.e. the relative tumor weight) was determined. As to the control group, the relative tumor weight was also determined likewise. The anti-tumor activity was evaluated in the same manner as described in Ann. Clin. Lab. Sci., 8 (1), 50 (1978). That is, the ratio of the relative tumor weight in the test group (T) to that in the control group (C) [T/C (%)] was calculated, and when the minimum of the ratio [Min.

Colon 26 solid tumor = test: Inhibitory activity of dye accumulation in the solid tumor tissue (inhibition of the tumor blood flow); type: in vivo, Male BALB/c mice; parameters: key to Inhibitory activity of dye accumulation into solid tumor: +: The average absorbance in the test group is significantly smaller than the average absorbance in the control group.; -: There is no significant difference in the average absorbance between the test group and the control group; settings: intravenous, Evans blue 1 hour after administration
Procedure: Inhibitory activity of dye accumulation in the solid tumor tissue (inhibition of the tumor blood flow): a) Materials: Test Animal: Male BALB/c mice (weighing 21-27 g, six mice per group) Tumor: Colon 26 solid tumor b) Test Method: Colon 26 solid tumor was cut in a size of about 1 mm square. The pieces of solid tumor were treated with a 0.25% collagenase solution and 0.02% deoxyribonuclease solution at 37° C. for 1.5 hour to give a cell suspension of colon 26 solid tumor cells. The cell suspension was adjusted to 3×10^6 cells/ml and the cell suspension (100 μl) was subcutaneously inoculated on the right back of male BALB/c mice. Ten days after the transplantation, the longitudinal size of the tumor was measured, and when the longitudinal size of the tumor reached about 10 mm, the mice were randomized. To the mice in test groups, the test compound was intravenously administered in an amount of 10 mg/kg or 1.25 mg/kg. The test compound was administered in the form of a solution in saline (in the test solution of Test Compound BF and BK, an equimolar amount of fumaric acid was further added, and in the test solution of Test Compound BN, an equimolar amount of hydrochloric acid was further added). To the mice in the control group, only saline was administered intravenously. One hour after the administration, 3% Evans blue-saline solution was injected intravenously via the tail vein of the mice in a volume of 0.1 ml per 10 g of the body weight of mouse, and 5 minutes later the mice were killed by luxation of the cervical vertebrae. After removing the tumor, the tumor was weighed. To extract Evans blue, the tumor was suspensed in 0.5% aqueous sodium sulfate (1.5 ml per 1 g of the tumor) and acetone (3.5 ml per 1 g of tumor), and then the tumor was cut into small pieces. After allowing to stand at room temperature overnight, the suspension were centrifuged at 3,000 rpm for 10 minutes to extract Evans blue, and the absorbance of the supernatant was read at 630 nm. […] (-): There is no significant difference in the average absorbance between the test group and the control group.

Acute toxicity = settings: mouse, in vivo, one week observation
Procedure: Test Animal: Male ddY mice (5 week old, five mice per group)
To male ddY mice was administered a solution of a test compound in saline intravenously, or a solution of a test compound in distilled water orally. One week after the administration, the number of death of mice was counted, and the LD50 was calculated therefrom by a probit method.

Row | SMILES | Inhibitory activity of dye accumulation into solid tumor (Colon 26 solid tumor; 1.25 mg/kg) | Inhibitory activity of dye accumulation into solid tumor (Colon 26 solid tumor; 10 mg/kg) | further results
1 | CC(=O)O.O[C@@H]1COC[C@H]1Oc1nc(N2CCNCC2)nc2ccccc12 [Compound AI, 4-[(3R,4R)-(4-Hydroxytetrahydrofuran-3-yl)oxy]-2-(1-piperazinyl)quinazoline monoacetate] | + | + | Evaluation ([1]; 40 mg/kg (po) (× 40 days)): Effective (when the minimum of the ratio [Min. T/C (%)] was less than 42%, the test compound was evaluated as "effective"); Min. T/C (%) ([1]; 40 mg/kg (po) (× 40 days)): 31.7%
2 | CC(=O)O.C[C@H](O)[C@@H](C)Oc1nc(N2CCNCC2)nc2ccccc12 (racemic) [Compound BC, 4-[(2RS,3SR)-(3-Hydroxybutan-2-yl)oxy]-2-(1-piperazinyl)quinazoline monoacetate] | + | + | 
3 | Cl.OC[C@H](O)CCOc1nc(N2CCNCC2)nc2ccccc12 [Compound BJ, 4-[(3R)-(3,4-Dihydroxybutan-1-yl)oxy]-2-(1-piperazinyl)quinazoline monohydrochloride] | + | + | Evaluation ([1]; 30 mg/kg (po) (× 40 days)): Effective (when the minimum of the ratio [Min. T/C (%)] was less than 42%, the test compound was evaluated as "effective"); Min. T/C (%) ([1]; 30 mg/kg (po) (× 40 days)): 38.8%; LD50 at 168 h (Acute toxicity; Intravenous injection): 118 mg/kg; LD50 at 168 h (Acute toxicity; Oral administration): > 1000 mg/kg
4 | O[C@@H]1C[C@@H](Oc2nc(N3CCNCC3)nc3ccccc23)C[C@@H]1O [Compound AM, 4-[(t-3,t-4-Dihydroxycyclopentan-r-1-yl)oxy]-2-(1-piperazinyl)quinazoline monohydrochloride] | + | + | Evaluation ([1]; 30 mg/kg (po) (× 40 days)): Effective (when the minimum of the ratio [Min. T/C (%)] was less than 42%, the test compound was evaluated as "effective"); Min. T/C (%) ([1]; 30 mg/kg (po) (× 40 days)): 36.1%; LD50 at 168 h (Acute toxicity; Intravenous injection): 101 mg/kg; LD50 at 168 h (Acute toxicity; Oral administration): > 500 mg/kg
5 | O[C@@H]1C[C@H](Oc2nc(N3CCNCC3)nc3ccccc23)C[C@@H]1O [Compound AN, 4-[(c-3,c-4-Dihydroxycyclopentan-r-1-yl)oxy]-2-(1-piperazinyl)quinazoline monohydrochloride] | + | + | 
6 | Cl.OC[C@H](O)[C@@H](O)COc1nc(N2CCNCC2)nc2ccccc12 [Compound BL, 4-[(2S,3S)-(2,3,4-Trihydroxybutan-1-yl)oxy]-2-(1-piperazinyl)quinazoline monohydrochloride] | + | + | 
7 | OC[C@@H](O)COc1nc(N2CCNCC2)nc2ccccc12 [Compound BN, 4-[(2R)-(2,3-Dihydroxypropan-1-yl)oxy]-2-(1-piperazinyl)quinazoline] | + |  | 
8 | O[C@@H]1COC[C@@H]1Oc1nc(N2CCNCC2)nc2ccccc12 (relative stereo) [Compound AG, 4-[cis-(4-Hydroxytetrahydrofuran-3-yl)oxy]-2-(1-piperazinyl)quinazolinemonoacetate] | + | + | 
9 | C[C@H](O)[C@@H](O)COc1nc(N2CCNCC2)nc2ccccc12.Cl [Compound BG, 4-[(2S,3S)-(2,3-Dihydroxybutan-1-yl)oxy]-2-(1-piperazinyl)quinazoline monohydrochloride] | + | + | 
10 | CC(=O)O.O[C@H]1CCC[C@H]1Oc1nc(N2CCNCC2)nc2ccccc12 (relative stereo) [Compound AB, 4-[cis-(2-Hydroxycyclopentan-1-yl)oxy]-2-(1-piperazinyl)quinazoline monoacetate] | - | + | 
11 | O[C@@H]1[C@H](O)[C@@H](Oc2nc(N3CCNCC3)nc3ccccc23)C[C@H]1O (relative stereo) [Compound AO, 4-[(t-2,t-3,c-4-Trihydroxycyclopentan-r-1-yl)-oxy]-2-(1-piperazinyl)quinazoline 1/2 fumarate] | + | + | 
12 | O[C@@H]1CCC[C@H]1Oc1nc(N2CCNCC2)nc2ccccc12 [Compound AE, 4-[(1R,2R)-(2-Hydroxycyclopentan-1-yl)oxy]-2-(1-piperazinyl)quinazolinemonoacetate] | + | + | 
13 | CO[C@@H]1C[C@H](Oc2nc(N3CCNCC3)nc3ccccc23)[C@@H](O)[C@H]1O [Compound AR, 4-[(1S,2S,3R,4R)-(2,3-Dihydroxy-4-methoxy-cyclopentan-1-yl)oxy]-2-(1-piperazinyl)quinazoline 1/2 fumarate] | + | + | 
